Assay results from publication PMC8286840, “Identifying SARS-CoV-2 antiviral compounds by screening for small molecule inhibitors of Nsp3 papain-like protease” (Biochemical Journal, 2021).
Where a name gives a salt, the structure may show the parent alone. Read-outs that look alike come from different tables or passages of the source.

Assays:
[1] = target: T1, SARS-CoV-2 PLpro (nsp3 1564–1878) (Severe acute respiratory syndrome coronavirus 2, UniProt P0DTD1); experiment: biochemical; set-up: FRET-quenched peptide (Pro3) cleavage by PLpro, 10 min pre-incubation, slope over 20 min, normalised to no-compound control; details: low concentration screen, read-out: % of control remaining
[2] = target: T1, SARS-CoV-2 PLpro (nsp3 1564–1878); experiment: biochemical; set-up: FRET-quenched peptide (Pro3) cleavage by PLpro, 10 min pre-incubation, slope over 20 min, normalised to no-compound control; details: high concentration screen, read-out: % of control remaining
Description: The plates were organized with columns 3–22 containing the compounds; the remaining columns were used for reaction controls including substrate only and substrate with enzyme but no compound (Figure 3Aii). The PLpro enzyme was pre-incubated with the compounds for 10 min, and then the reaction was initiated by the addition of substrate. […] We incubated the inhibitors with PLpro before the enzymatic reaction so that the slow-binding inhibitors will not be missed out [21]. […] Fluorescence was read on a Spark multimode microplate reader (Tecan) with an excitation wavelength at 330 nm and emission wavelength at 420 nm. […] An amount of 5 µl of the enzyme was pre-incubated with compounds for 10 min before the addition of 15 µl substrate. Fluorescence was monitored at 2 min for 20 min with 3 min intervals giving a total of seven readings.

## C=CC(=O)Nc1cccc(Sc2nc(Nc3ccc(N4CCN(C)CC4)cc3)ncc2Cl)c1 [WZ8040]
[1]; Well no.=4717
  remaining activity at 1.25 µM: 107%
[2]; Well no.=4717
  remaining activity at 3.75 µM: 107%

## c1ccc(NCc2ccc(CNc3ccccn3)cc2)nc1 [WZ 811]
[1]; Well no.=4843
  remaining activity at 1.25 µM: 100%
[2]; Well no.=4843
  remaining activity at 3.75 µM: 102%

## O=C(Oc1cccc(F)c1OC(=O)c1cccc(O)c1)c1cccc(O)c1 [WZB117]
[1]; Well no.=8770
  remaining activity at 1.25 µM: 102%
[2]; Well no.=8770
  remaining activity at 3.75 µM: 101%

## COc1cc(O)c2c(c1)oc(=O)c1c3cc(O)c(O)cc3oc21 [Wedelolactone]
[1]; Well no.=3230
  remaining activity at 1.25 µM: 99.3%
[2]; Well no.=3230
  remaining activity at 3.75 µM: 98%

## CCCCn1c2ccc(O)cc2c2c3c(c(-c4ccccc4Cl)cc21)C(=O)NC3=O [Wee1 Inhibitor II]
[1]; Well no.=2685
  remaining activity at 1.25 µM: 90.9%
[2]; Well no.=2685
  remaining activity at 3.75 µM: 88.5%

## O=C1NC(=O)c2c1c(-c1ccccc1Cl)cc1[nH]c3ccc(O)cc3c21 [Wee1 Inhibitor]
[1]; Well no.=2683
  remaining activity at 1.25 µM: 97.3%
[2]; Well no.=2683
  remaining activity at 3.75 µM: 97.7%

## COc1c(O)cc(O)c2c(=O)cc(-c3ccccc3)oc12 [Wogonin]
[1]; Well no.=3735
  remaining activity at 1.25 µM: 96.1%
[2]; Well no.=3735
  remaining activity at 3.75 µM: 98.6%

## COC[C@H]1OC(=O)c2coc3c2[C@@]1(C)C1=C(C3=O)C2CCC(=O)[C@@]2(C)C[C@H]1OC(C)=O (stereo partly drawn) [Wortmannin from Penicillium funiculosum]
[1]; Well no.=1386
  remaining activity at 1.25 µM: 92.9%
[2]; Well no.=1386
  remaining activity at 3.75 µM: 94.7%

## COC[C@H]1OC(=O)c2coc3c2[C@@]1(C)C1=C(C3=O)[C@@H]2CCC(=O)[C@@]2(C)C[C@H]1OC(C)=O [Wortmannin]
[1]; Well no.=3232
  remaining activity at 1.25 µM: 99.9%
[2]; Well no.=3232
  remaining activity at 3.75 µM: 102%

## Oc1nc(-c2ccc(C(F)(F)F)cc2)nc2c1CSCC2 [XAV-939]
[1]; Well no.=4719
  remaining activity at 1.25 µM: 102%
[2]; Well no.=4719
  remaining activity at 3.75 µM: 103%

## CCN(Cc1ccccc1)C(=O)Cn1c(=O)n(C)c2cnc(-c3ccccc3)nc21 [XBD173]
[1]; Well no.=6053
  remaining activity at 1.25 µM: 102%
[2]; Well no.=6053
  remaining activity at 3.75 µM: 100%

## O=C(O)c1cc(C(F)(F)F)ccc1N1CC[C@H](OCc2ccccn2)C1 [XEN445]
[1]; Well no.=8574
  remaining activity at 1.25 µM: 105%
[2]; Well no.=8574
  remaining activity at 3.75 µM: 109%

## CCN(CC)CCCC(C)Nc1cc(/C=C/c2ccccc2Cl)nc2cc(Cl)ccc12 (stereo not drawn) [XIB4035]
[1]; Well no.=5692
  remaining activity at 1.25 µM: 89%
[2]; Well no.=5692
  remaining activity at 3.75 µM: 89.5%

## COc1ccc(Cl)c(Nc2nc3ccccc3nc2NS(=O)(=O)c2cccc(NC(=O)C(C)(C)N)c2)c1 [XL147]
[1]; Well no.=4669
  remaining activity at 1.25 µM: 105%
[2]; Well no.=4669
  remaining activity at 3.75 µM: 106%

## CC[C@@H](C)Nc1cc(C(=O)N[C@H]2C[C@H]3CC[C@@H](C2)N3c2ccc(C(=O)C3CC3)cn2)c(C)cc1C(N)=O [XL888]
[1]; Well no.=8982
  remaining activity at 1.25 µM: 90.5%
[2]; Well no.=8982
  remaining activity at 3.75 µM: 93.8%

## CCOc1cc(N2CCC(O)CC2)ccc1Nc1ncc2c(n1)N(C)c1ccccc1C(=O)N2C [XMD8-92]
[1]; Well no.=5565
  remaining activity at 1.25 µM: 93.8%
[2]; Well no.=5565
  remaining activity at 3.75 µM: 95.2%

## CN1C(=O)c2sccc2N(C)c2nc(Nc3ccc(S(N)(=O)=O)cc3)ncc21 [XMU-MP-1]
[1]; Well no.=8268
  remaining activity at 1.25 µM: 97%
[2]; Well no.=8268
  remaining activity at 3.75 µM: 91.6%

## FC(F)(F)c1cccc(C2=CCN(CCc3ccc4ccccc4c3)CC2)c1 [Xaliproden hydrochloride]
[1]; Well no.=5767
  remaining activity at 1.25 µM: 106%
[2]; Well no.=5767
  remaining activity at 3.75 µM: 105%

## O=C(NCCNCC(O)COc1ccc(O)cc1)N1CCOCC1 (stereo not drawn) [Xamoterol hemifumarate]
[1]; Well no.=1436
  remaining activity at 1.25 µM: 95.5%
[1]; Well no.=1741
  remaining activity at 1.25 µM: 102%
[2]; Well no.=1436
  remaining activity at 3.75 µM: 95.1%
[2]; Well no.=1741
  remaining activity at 3.75 µM: 103%

## CCCCCCOc1nsnc1C1=CCCN(C)C1 [Xanomeline (oxalate)]
[1]; Well no.=8005
  remaining activity at 1.25 µM: 103%
[2]; Well no.=8005
  remaining activity at 3.75 µM: 100%

## CCCn1c(=O)c2[nH]c(-c3ccc(OCC(=O)NCCN)cc3)nc2n(CCC)c1=O [Xanthine amine congener]
[1]; Well no.=1532
  remaining activity at 1.25 µM: 95.7%
[2]; Well no.=1532
  remaining activity at 3.75 µM: 89.4%

## O=c1[nH]c(=O)c2nc[nH]c2[nH]1 [Xanthine]
[1]; Well no.=7203
  remaining activity at 1.25 µM: 97.4%
[2]; Well no.=7203
  remaining activity at 3.75 µM: 96.5%

## COc1cc(O)c(CC=C(C)C)c(O)c1C(=O)/C=C/c1ccc(O)cc1 [Xanthohumol]
[1]; Well no.=8578
  remaining activity at 1.25 µM: 106%
[2]; Well no.=8578
  remaining activity at 3.75 µM: 102%
